Data as given in patent US5804410A, “Nucleic acid sequence encoding trypsin-like enzyme and process for producing the enzyme” (Teijin Limited, priority 1994, dated 1998).

Assays:
NDV Miyadera strain = conditions: cited from earlier work
fibrinogen = test: Influence of trypsin-like enzyme on thrombin-induced coagulation time of fibrinogen; assay type: biochemical; conditions: fibrinogen 2 mg/ml, 37° C., thrombin 2.5 units/ml; in proportion as the added activity unit increases; FIG. 3
Description: Fibrinogen was dissolved in 0.01M Tris-HCl buffer (pH 7.4), 0.01M CaCl2 0.15M NaCl so that its concentration could be 2 mg/ml, the trypsin-like enzyme obtained in Example 1 was added with its activity unit changed, the mixture was heated to 37° C., 0.1 ml of this reaction solution was mixed with 0.1 ml of a thrombin solution (2.5 units/ml), and coagulation time was measured on the mixture. In proportion as the added activity unit of the trypsin-like enzyme increases, coagulation time was prolonged.

VSV New Jersey strain = conditions: cited from earlier work
[1] = Measurement of optimum pH of trypsin-like enzyme; assay type: biochemical; conditions: at pH 6.0, relative to the enzyme at pH 7.6
Description: 50 μl of the solution of the trypsin-like protease obtained in Example 1 was added to 1.5 ml of 0.1M Tris-HCl buffer (pH 8.6) containing 100 μM of a synthetic substrate for trypsin Boc-Phe-Ser-Arg-MCA (MCA=methylcoumarinamide), and the mixture was subjected to incubation at 37° C. for 1 hour. 1 ml of 30% acetic acid was then added, the amount of 7-amino-4-methylcoumarin (AMC) formed was determined by fluorescent assay (fluorescence 440 nm, excitating light 380 nm), and the activity of the enzyme was calculated based thereon. An activity of forming 1 pM of AMC in 1 minute is defined as 1 unit (1 unit=1 pM AMC/min).
The following buffers were prepared for ascertaining trypsin activity at various pH values.
The activity of the trypsin-like enzyme obtained in Example 1 in each buffer was assayed according to the method described in Example 2, and the results are shown in FIG. 2.

influenza viruses = conditions: in contrast to trypsin; cited from earlier work
trypsin-like enzyme = target: T1, trypsin-like enzyme (Homo sapiens, UniProt O60235); test: Substrate specificity, synthetic MCA substrates (assay method of trypsin activity); assay type: biochemical; conditions: synthetic substrates, pH 8.6
T1 construct: from tissue; host or cells: cough phlegm (sputum) of patients with chronic disease of the respiratory tract
T1 sequence (O60235 187-418): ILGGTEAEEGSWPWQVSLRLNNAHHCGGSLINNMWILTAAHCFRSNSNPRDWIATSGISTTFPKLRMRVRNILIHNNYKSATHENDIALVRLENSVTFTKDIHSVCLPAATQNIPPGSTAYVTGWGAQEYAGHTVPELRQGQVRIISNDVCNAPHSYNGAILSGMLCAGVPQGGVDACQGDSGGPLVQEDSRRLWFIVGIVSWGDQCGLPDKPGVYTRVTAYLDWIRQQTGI

trypsin-like enzyme: protease isolated from cough phlegm of patients with chronic respiratory tract disease, amino acid sequence [I] (SEQ ID NO:19)
action of inactivating NDV Miyadera strain (NDV Miyadera strain): inactivating | coagulation time (fibrinogen): prolonged | action of inactivating VSV New Jersey strain (VSV New Jersey strain): inactivating | Inactivation by pH [1]: about 80% | action of inactivating influenza viruses (influenza viruses): inactivating | chymotrypsin activity, elastase activity, collagenase activity, leucine aminopeptidase activity of the enzyme (trypsin-like enzyme): did not exhibit
